Test results as given in PubChem BioAssay AID467 (The Scripps Research Institute Molecular Screening Center, 2006).
Activity calls are given as the source filed them. No rule for the calls is given here.

Test system: parental cell line counter screen, S1P1 agonist assay readout
Assay: signal in parental cells, counter-screen for S1P1 agonist project (AID 467);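 also: agonist potency measured against forskolin stimulation plus an EC20 level of SEW2871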

SMILES | EC50
O=C(OC1CCCCC1)c1ccc(NC(=O)c2ccco2)cc1 | > 30 µM (inactive)
CCOc1ccc(-c2nnc(-c3ccco3)o2)cc1OCC | > 95.1 µM (inactive)
CCOC(=O)C1C(=O)C=C(c2ccc(OC)cc2)CC1c1ccco1 (configuration not stated) | > 30 µM (inactive)
COCC(=O)Nc1cccc(C(F)(F)F)c1 | > 95.1 µM (inactive)
O=C(Nc1cccc(C(F)(F)F)c1)N1CCC(c2nc(-c3ccc(F)cc3)no2)CC1 | 14.4 µM (inactive)
CCOC(=O)c1cnc(-n2nc(C)cc2C)nc1NC1CCCCC1 | 5.93 µM
CCOc1ccc(S(=O)(=O)N2CCN(c3ccc(C)cc3C)CC2)cc1 | > 95.1 µM (inactive)
Cc1cc(C(=O)CSc2nnc(-c3ccccc3)n2-c2ccccc2)c(C)n1-c1ncn[nH]1 | > 95.1 µM (inactive)
CCC(=O)Nc1ccc2c(c1)C(=O)N(C1CCCCC1)C2=O | > 95.1 µM (inactive)
Fc1ccccc1COc1ccc(/C=N/n2cnnc2)cc1 | > 95.1 µM (inactive)
N#Cc1nc(COc2ccc(Cl)cc2Cl)oc1N1CCN(c2ccccc2)CC1 | > 95.1 µM (inactive)
COc1ccc(S(=O)(=O)Cc2ccc(C(=O)N3CCN(c4ccc(Cl)cc4)CC3)o2)cc1 | > 30 µM (inactive)
CC1(C)CC(=O)C(C=Nc2ccc3[nH]ncc3c2)=C(O)C1 | > 30 µM (inactive)
O=C(C1CCC1)N1CCc2cc(S(=O)(=O)Nc3ccc4c(c3)OCCO4)ccc21 | > 95.1 µM (inactive)
COc1ccc(-c2noc(-c3cccc(OC)c3OC)n2)cc1OC | > 95.1 µM (inactive)
O=c1oc2cc(Br)ccc2n1CSC1=NCCS1 | > 10 µM (inactive)
CCC(NC(=O)Nc1nnc(C(F)(F)F)s1)(C(F)(F)F)C(F)(F)F | > 95.1 µM (inactive)
Cc1ccc(-c2nnc(SCc3ccccc3F)o2)cc1 | > 95.1 µM (inactive)
Brc1ccc2ncnc(Nc3ccc(N4CCOCC4)cc3)c2c1 | 46.6 µM (inactive)
CCOc1ccc(-c2nc(-c3ccc(OC)cc3)no2)cc1OCC | > 95.1 µM (inactive)
CC(C)OCCCNc1ncnc2c1[nH]c1ccccc12 | 43 µM (inactive)
COC(=O)c1cc(CSc2nnc(-c3ccccc3)c(-c3ccccc3)n2)oc1C | > 95.1 µM (inactive)
O=C1CC(N2CCN(C/C=C/c3ccccc3)CC2)C(=O)N1CCc1ccccc1 (configuration not stated) | > 30 µM (inactive)
COc1ccc(-n2nc3ccc(NS(C)(=O)=O)cc3n2)cc1Cl | > 95.1 µM (inactive)
N#Cc1ccc(NC(=O)Nc2ccc(Cl)cc2)cc1 | 9.6 µM
Cc1csc(NC(=O)c2nc(-c3ccccc3)n(-c3ccccc3)n2)n1 | > 95.1 µM (inactive)

SMILES | EC50
Cc1cc(C)n(-c2nc3ccccc3c(=O)n2OCCOc2ccccc2)n1 | > 95.1 µM (inactive)
CC(C)c1cc(C(=O)N2CCN(C(c3ccccc3)c3ccccc3)CC2)no1 | > 95.1 µM (inactive)
Clc1ccc(OCc2nnc(-c3ccccc3Br)o2)c(Cl)c1 | > 95.1 µM (inactive)
CCN(CC)c1ccc2cc(NC(=O)CCC(=O)O)c(=O)oc2c1 | 6.1 µM
CC(C)c1ccc(OCc2nc(-c3ccccn3)no2)c(Br)c1 | 63 µM (inactive)
COc1ccccc1Oc1ccc2c(c1)C(=O)N(c1ccc(O)cc1)C2=O | > 95.1 µM (inactive)
Cn1c(C(=O)N2CCc3ccccc3C2)cc2oc3ccccc3c21 | 66.4 µM (inactive)
Cc1cc(C(=O)CN2C(=O)c3ccccc3C2=O)c(C)n1Cc1cccs1 | > 95.1 µM (inactive)
COc1ccc2[nH]c(=O)c3c(c2c1)OC(C)(C)C=C3 | 6.75 µM
O=C(Nc1cccc(C(F)(F)F)c1)C1CCCN1S(=O)(=O)c1cccc2cccnc12 (configuration not stated) | > 30 µM (inactive)
Cc1ccc2oc(-c3ccc(NC(=O)c4cccnc4)cc3)nc2c1 | > 95.1 µM (inactive)
COC(=O)CS(=O)(=O)c1nnc([C@H](Cc2ccccc2)NC(=O)OC(C)(C)C)o1 | 3.68 µM
CCCCOc1ncnc2c1[nH]c1ccccc12 | 37.9 µM (inactive)
O=C(Nc1ccc(N2CCCC2)c(Cl)c1)c1ccc(Br)o1 | > 95.1 µM (inactive)
CC1CCN(S(=O)(=O)c2ccc3c(c2)oc(=O)n3CC(=O)NCc2ccc3c(c2)OCO3)CC1 | > 30 µM (inactive)
Cc1ccnc(SCC(=O)Nc2sc3c(c2C#N)CCCC3)n1 | > 30 µM (inactive)
Cc1nnc2ccc(Oc3ccc(-c4ccccc4)cc3)nn12 | > 30 µM (inactive)
O=C1C2C3C=CC(CO)(O3)C2C(=O)N1c1ccccc1-c1ccccc1 (configuration not stated) | 2.26 µM
COc1ccc(N=c2scc(-c3ccc(S(=O)(=O)N4CCOCC4)cc3)n2CCCO)cc1 | > 30 µM (inactive)
Clc1ccc(CSc2nnc(-c3ccncc3)o2)c(Cl)c1 | > 95.1 µM (inactive)
CCc1nnc(NC(=O)C2CCCCC2)s1 | > 95.1 µM (inactive)
O=C(Nc1nc(-c2ccc3c(c2)OCO3)cs1)c1ccncc1 | 28.9 µM (inactive)
COC(=O)c1sc(NC(=O)c2ccc(OC)cc2OC)nc1C | > 95.1 µM (inactive)
O=C(Nc1ccc(Oc2ccccc2)cc1)c1cnc2n(c1=O)CCS2 | > 95.1 µM (inactive)
CSc1ccc(S(=O)(=O)Nc2ccc3c(c2)OCCO3)cc1 | 67.2 µM (inactive)
CCCc1cc2c(=O)c(-c3ccccn3)coc2cc1OC | > 95.1 µM (inactive)

SMILES | EC50
O=C(CSc1nnc(-c2cc3ccccc3cc2O)n1Cc1ccco1)c1ccc(F)cc1 | > 10 µM (inactive)
COc1ccc(-c2cc(C(=O)NC3CCCC3)no2)cc1OC | > 95.1 µM (inactive)
COC(=O)c1ccc(C(c2c(N)n(CC(C)C)c(=O)[nH]c2=O)N2CCN(c3ccccc3)CC2)cc1 (configuration not stated) | > 95.1 µM (inactive)
O=C(Nc1ccc(OC(F)F)c(Cl)c1)Nc1ccc2c(c1)OCO2 | > 10 µM (inactive)
Cc1cc(C(=O)CSc2nnnn2-c2ccc(O)cc2)c(C)n1Cc1ccc2c(c1)OCO2 | 11.9 µM (inactive)
COCCn1c(C)cc(C(=O)CSc2nc3ccccc3c(=O)[nH]2)c1C | > 95.1 µM (inactive)
CN=C(NC#N)SCC(=O)c1ccc(Cl)cc1Cl | > 30 µM (inactive)
CCc1ccc(S(=O)(=O)NCCc2csc(-c3ccccc3)n2)s1 | 33.4 µM (inactive)
COc1ccc(-c2nc(-c3ccncc3)no2)cc1OC | > 95.1 µM (inactive)
Cc1ccc(C(=O)c2cncc(Br)c2)cc1 | > 95.1 µM (inactive)
Cc1ccc2[nH]c3c(NCc4ccco4)ncnc3c2c1 | 30.9 µM (inactive)
COc1ccc(CNc2cc(C)nc3ncnn23)c(OC)c1 | > 95.1 µM (inactive)
Cc1ccc(-c2csc3ncnc(Sc4nnc(CN5CCCCCC5=O)o4)c23)cc1 | 2.73 µM
c1ccc2c(c1)CCN(c1ncnc3c1[nH]c1ccccc13)C2 | 5.88 µM
CCOc1ccc(C(=O)Nc2c(C(N)=O)oc3ccccc23)cc1 | > 95.1 µM (inactive)
COc1ccccc1OCCCCCc1c(C)n[nH]c1C | 57.2 µM (inactive)
CC(=O)N1C=CN(C(C)=O)C(c2cn(C)c3ccccc23)C1c1cn(C)c2ccccc12 (configuration not stated) | > 30 µM (inactive)
COc1cccc(-c2nnc3sc(C4CCCCC4)nn23)c1 | 44.2 µM (inactive)
CCn1c(-c2cccc(Cl)c2)n[nH]c1=S | > 95.1 µM (inactive)
CCCCn1ccnc1C(=O)c1cccc(S(=O)(=O)N2c3ccccc3CC2C)c1 (configuration not stated) | > 95.1 µM (inactive)
Clc1ccc(-c2nc3nc4ccccc4nc3n2Cc2ccco2)cc1 | > 95.1 µM (inactive)
Nc1ccc(N2CCCCCC2)cc1 | 9.89 µM
Cc1cc(N2CCN(c3nc4ccccc4s3)CC2)n2ncnc2n1 | > 95.1 µM (inactive)
Clc1ccc(OCc2nnc(SCc3nc4ccccc4[nH]3)n2Cc2ccco2)cc1 | 36.4 µM (inactive)
O=C(Nc1ccc(C(F)(F)F)cc1)C1CCCN1S(=O)(=O)c1cccc2cccnc12 (configuration not stated) | > 30 µM (inactive)
CCc1ccc(N(CC)c2ncnc3nc[nH]c23)cc1 | > 95.1 µM (inactive)

SMILES | EC50
CCOc1ccc(C(C)=O)cc1N1C(=O)C2C3C=CC(O3)C2C1=O (configuration not stated) | 4.31 µM
Cc1ccc(C(=O)Nc2nc(COc3ccccc3)cs2)s1 | 28.9 µM (inactive)
COc1ccc2c(c1)-c1nc(NC(=O)c3cccs3)sc1CC2 | 16.2 µM (inactive)
COc1ccc2c(c1)CCc1c(C(=O)NC3CCCCC3)noc1-2 | > 95.1 µM (inactive)
Cc1nn(Cc2ccc(Cl)c(Cl)c2)c(C)c1NC(=O)c1cc(C2CC2)on1 | 41.2 µM (inactive)
Cc1oc(-c2ccccc2)nc1Cn1cccc1C1=NC(c2ccccc2)CO1 (configuration not stated) | > 95.1 µM (inactive)
COc1ccc(CCNc2ncnc3c2oc2ccccc23)cc1OC | 5.31 µM
CCCOC(=O)c1ccc(OCC(O)Cn2c(C)nc3ccccc32)cc1 (configuration not stated) | > 95.1 µM (inactive)
Cc1cc(C(=O)COC(=O)c2csc3c2CCCC3)c(C)n1C | > 95.1 µM (inactive)
CCN(C(=O)c1ccc(C(C)(C)C)cc1)c1nnc(Cn2nnc3ccccc32)s1 | 8.78 µM
Cc1ccc(S(=O)(=O)Nc2cccc3ncccc23)s1 | > 95.1 µM (inactive)
CCCC(=O)Nc1ccc(-c2nc3cc(C)ccc3o2)cc1 | > 95.1 µM (inactive)
COc1ccccc1N/C(N)=N/c1nc(CSc2ccc(C)cc2)cc(=O)[nH]1 | > 95.1 µM (inactive)
COc1ccc(-n2c(C)cc(C(=O)CSc3nnc(-c4cccs4)o3)c2C)cc1 | 32.3 µM (inactive)
Cc1cccc(-c2nc(C#N)c(NC3CCCCC3)o2)c1 | > 95.1 µM (inactive)
Cn1nc(CC(=O)Nc2ccc(N3CCN(C(=O)OC(C)(C)C)CC3)cc2)c2ccccc2c1=O | > 95.1 µM (inactive)
COc1cccc(-c2cc(C(=O)Nc3ccccc3SC)no2)c1 | > 95.1 µM (inactive)
O=C(CSc1nnc(-c2c[nH]c3ccccc23)o1)N1c2ccccc2CCc2ccccc21 | > 95.1 µM (inactive)
CCOC(=O)CN(C(=O)CSc1nnc(-c2cccc(OC)c2)o1)c1ccc(F)cc1 | > 95.1 µM (inactive)
CCOC(=O)C1CCN(c2ncnc3c2oc2ccc(Cl)cc23)CC1 | > 95.1 µM (inactive)
CCCc1ccc(Oc2cn[nH]c2-c2ccc(O)c(C)c2O)cc1 | > 10 µM (inactive)
Cn1c(C(=O)N2CCCc3ccccc32)cc2sccc21 | > 95.1 µM (inactive)
Cc1cc(C(=O)CSc2nc3ccccc3c(=O)n2C)c(C)n1Cc1ccc2c(c1)OCO2 | 54.9 µM (inactive)
Cc1ccc(OCc2nc(-c3ccccc3)no2)c(C)c1 | > 95.1 µM (inactive)
